Earlier results, collected in patent publication US7205292B2, “CGRP receptor antagonists” (Merck & Co., Inc., priority 2003, dated 2007).

What was measured:
CGRP [1] = settings: rats, electrical stimulation of the dura mater, prior administration
CGRP [2] = settings: rat, trigeminal ganglion stimulation
CGRP [3] = settings: marmoset, electrical stimulation of the trigeminal ganglion

| Compound | effect on increased diameter of the middle meningeal artery (CGRP [1]) | effect on increased facial blood flow (CGRP [2]) | effect on increase in facial blood flow (CGRP [3]) |
| --- | --- | --- | --- |
| CGRP(8-37) | blocked | inhibited |  |
| NCCCC[C@H](NC(=O)[C@@H](Cc1cc(Br)c(O)c(Br)c1)NC(=O)N1CCC(N2Cc3ccccc3NC2=O)CC1)C(=O)N1CCN(c2ccncc2)CC1 [BIBN4096BS] |  |  | blocked |
